Reference: PubChem BioAssay (NCI)
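Briefly, cells in 96-well plates were exposed to five compound concentrations for 48 h, and endpoints were estimated by linear interpolation. GI50 = concentration required for 50% inhibition of growth. TGI marks complete inhibition of growth.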

Key:
Experiment in all cases: NCI tumour cell line growth inhibition, 48 h
PC-3 prostate = test system: PC-3 prostate
SK-OV-3 ovarian = test system: SK-OV-3 ovarian
OVCAR-5 ovarian = test system: OVCAR-5 ovarian
CCRF-CEM leukemia = test system: CCRF-CEM leukemia
SN12C renal = test system: SN12C renal
MCF7 breast = test system: MCF7 breast
OVCAR-3 ovarian = test system: OVCAR-3 ovarian
RPMI-8226 leukemia = test system: RPMI-8226 leukemia
IGROV1 ovarian = test system: IGROV1 ovarian
NCI-H460 lung = test system: NCI-H460 lung
HOP-92 NSCLC = test system: HOP-92 NSCLC
MDA-MB-435 = test system: MDA-MB-435
EKVX NSCLC = test system: EKVX NSCLC
UO-31 renal = test system: UO-31 renal
LOX IMVI melanoma = test system: LOX IMVI melanoma
DU-145 prostate = test system: DU-145 prostate
SNB-75 CNS = test system: SNB-75 CNS
SW-620 colon = test system: SW-620 colon
HCT-15 colon = test system: HCT-15 colon
HOP-62 NSCLC = test system: HOP-62 NSCLC
SK-MEL-2 melanoma = test system: SK-MEL-2 melanoma
NCI-H23 lung = test system: NCI-H23 lung
MDA-MB-231 breast = test system: MDA-MB-231 breast
K-562 leukemia = test system: K-562 leukemia
MALME-3M melanoma = test system: MALME-3M melanoma
TK-10 renal = test system: TK-10 renal
HCC-2998 colon = test system: HCC-2998 colon
BT-549 breast = test system: BT-549 breast
OVCAR-4 ovarian = test system: OVCAR-4 ovarian
HCT-116 colon = test system: HCT-116 colon
786-0 renal = test system: 786-0 renal
SF-539 CNS = test system: SF-539 CNS
CAKI-1 renal = test system: CAKI-1 renal
HS 578T breast = test system: HS 578T breast
KM12 colon = test system: KM12 colon
HL-60(TB) leukemia = test system: HL-60(TB) leukemia
MOLT-4 leukemia = test system: MOLT-4 leukemia
A498 renal = test system: A498 renal
COLO 205 colon = test system: COLO 205 colon
SR leukemia = test system: SR leukemia
U251 CNS = test system: U251 CNS
SK-MEL-28 melanoma = test system: SK-MEL-28 melanoma
NCI-H522 lung = test system: NCI-H522 lung
T-47D breast = test system: T-47D breast
M14 melanoma = test system: M14 melanoma
ACHN renal = test system: ACHN renal
SNB-19 CNS = test system: SNB-19 CNS
HT29 colon = test system: HT29 colon
NCI/ADR-RES ovarian = test system: NCI/ADR-RES ovarian
SK-MEL-5 melanoma = test system: SK-MEL-5 melanoma
RXF 393 renal = test system: RXF 393 renal
UACC-257 melanoma = test system: UACC-257 melanoma
NCI-H226 lung = test system: NCI-H226 lung
OVCAR-8 ovarian = test system: OVCAR-8 ovarian
SF-295 CNS = test system: SF-295 CNS
SF-268 CNS = test system: SF-268 CNS

`COc1cccc2c1C(=O)c1c(O)c3c(c(O)c1C2=O)CC(O)(/C(C)=N/NC(=O)CCCCC(=O)N/N=C(\C)C1(O)Cc2c(O)c4c(c(O)c2C(OC2CC(N)C(O)C(C)O2)C1)C(=O)c1c(OC)cccc1C4=O)CC3OC1CC(N)C(O)C(C)O1` (centres undefined) gave a GI50 (PC-3 prostate) of 597 nM, a TGI (PC-3 prostate) of 9180 nM and a GI50 (SK-OV-3 ovarian) of 227 nM. The GI50 (OVCAR-5 ovarian) was 862 nM, the TGI (OVCAR-5 ovarian) was greater than 50000 nM and the GI50 (CCRF-CEM leukemia) was 207 nM. The TGI (CCRF-CEM leukemia) was 18400 nM, the GI50 (SN12C renal) was 178 nM and the TGI (SN12C renal) was greater than 50000 nM. It also gave a GI50 (MCF7 breast) of 45.9 nM, a TGI (MCF7 breast) greater than 50000 nM and a GI50 (OVCAR-3 ovarian) of 200 nM. The TGI (OVCAR-3 ovarian) was 2750 nM, the GI50 (RPMI-8226 leukemia) was 139 nM and the TGI (RPMI-8226 leukemia) was 2630 nM. It also gave a GI50 (IGROV1 ovarian) of 906 nM, a TGI (IGROV1 ovarian) greater than 21000 nM and a GI50 (NCI-H460 lung) of 45.6 nM. The TGI (NCI-H460 lung) was 10900 nM, the GI50 (HOP-92 NSCLC) was 137 nM and the TGI (HOP-92 NSCLC) was 2450 nM. The GI50 (MDA-MB-435) was 324 nM, the TGI (MDA-MB-435) was 2010 nM and the GI50 (EKVX NSCLC) was 418 nM. It also gave a TGI (EKVX NSCLC) of 21000 nM, a GI50 (UO-31 renal) of 1340 nM and a TGI (UO-31 renal) greater than 22000 nM. The GI50 (LOX IMVI melanoma) was 80.3 nM, the GI50 (DU-145 prostate) was 163 nM and the TGI (DU-145 prostate) was 1930 nM. It also gave a GI50 (SNB-75 CNS) of 118 nM, a TGI (SNB-75 CNS) of 867 nM and a GI50 (SW-620 colon) of 147 nM. It also gave a TGI (SW-620 colon) of 33400 nM, a GI50 (HCT-15 colon) of 2890 nM and a TGI (HCT-15 colon) greater than 50000 nM. It also gave a GI50 (HOP-62 NSCLC) of 218 nM, a TGI (HOP-62 NSCLC) of 1930 nM and a GI50 (SK-MEL-2 melanoma) of 585 nM. For the same molecule, the TGI (SK-MEL-2 melanoma) was 1790 nM, the GI50 (NCI-H23 lung) was 173 nM and the TGI (NCI-H23 lung) was 1120 nM. It also gave a GI50 (MDA-MB-231 breast) of 749 nM, a TGI (MDA-MB-231 breast) greater than 50000 nM and a GI50 (K-562 leukemia) of 222 nM. For the same molecule, the TGI (K-562 leukemia) was greater than 23300 nM, the GI50 (MALME-3M melanoma) was 146 nM and the TGI (MALME-3M melanoma) was 973 nM. The GI50 (TK-10 renal) was 716 nM, the TGI (TK-10 renal) was greater than 14300 nM and the GI50 (HCC-2998 colon) was 318 nM. The TGI (HCC-2998 colon) was 1140 nM, the GI50 (BT-549 breast) was 511 nM and the TGI (BT-549 breast) was 4350 nM. It also gave a GI50 (OVCAR-4 ovarian) of 401 nM, a TGI (OVCAR-4 ovarian) of 8430 nM and a GI50 (HCT-116 colon) of 116 nM. For the same molecule, the GI50 (786-0 renal) was 185 nM, the TGI (786-0 renal) was 1940 nM and the GI50 (SF-539 CNS) was 121 nM. For the same molecule, the TGI (SF-539 CNS) was 465 nM, the GI50 (CAKI-1 renal) was 265 nM and the TGI (CAKI-1 renal) was 3230 nM. The GI50 (HS 578T breast) was 263 nM, the TGI (HS 578T breast) was 2830 nM and the GI50 (KM12 colon) was 361 nM. The TGI (KM12 colon) was 6120 nM, the GI50 (HL-60(TB) leukemia) was 159 nM and the TGI (HL-60(TB) leukemia) was 2380 nM. It also gave a GI50 (MOLT-4 leukemia) of 60.5 nM, a TGI (MOLT-4 leukemia) of 694 nM and a GI50 (A498 renal) of 567 nM. For the same molecule, the TGI (A498 renal) was 1340 nM, the GI50 (COLO 205 colon) was 87.7 nM and the TGI (COLO 205 colon) was 440 nM. It also gave a GI50 (SR leukemia) of 8.27 nM, a TGI (SR leukemia) of 36.5 nM and a GI50 (U251 CNS) of 147 nM. The TGI (U251 CNS) was greater than 23700 nM, the GI50 (SK-MEL-28 melanoma) was 473 nM and the TGI (SK-MEL-28 melanoma) was 1620 nM. The GI50 (NCI-H522 lung) was 108 nM, the TGI (NCI-H522 lung) was 811 nM and the GI50 (T-47D breast) was 93.1 nM. The TGI (T-47D breast) was 2070 nM, the GI50 (M14 melanoma) was 225 nM and the TGI (M14 melanoma) was 1320 nM. For the same molecule, the GI50 (ACHN renal) was 188 nM, the TGI (ACHN renal) was 1690 nM and the GI50 (SNB-19 CNS) was 164 nM. For the same molecule, the TGI (SNB-19 CNS) was 1570 nM, the GI50 (HT29 colon) was 181 nM and the TGI (HT29 colon) was greater than 50000 nM. For the same molecule, the GI50 (NCI/ADR-RES ovarian) was 17900 nM, the TGI (NCI/ADR-RES ovarian) was greater than 50000 nM and the GI50 (SK-MEL-5 melanoma) was 97.4 nM. The TGI (SK-MEL-5 melanoma) was 584 nM, the GI50 (RXF 393 renal) was 209 nM and the TGI (RXF 393 renal) was 831 nM. It also gave a GI50 (UACC-257 melanoma) of 554 nM, a TGI (UACC-257 melanoma) of 2370 nM and a GI50 (NCI-H226 lung) of 159 nM. For the same molecule, the TGI (NCI-H226 lung) was 1230 nM, the GI50 (OVCAR-8 ovarian) was 215 nM and the TGI (OVCAR-8 ovarian) was greater than 50000 nM. It also gave a GI50 (SF-295 CNS) of 125 nM, a TGI (SF-295 CNS) of 689 nM and a GI50 (SF-268 CNS) of 147 nM. For the same molecule, the TGI (SF-268 CNS) was 4580 nM.
